# Source: ChEMBL document CHEMBL3045273, “Synthesis, characterization, and pharmacological evaluation of 1-[2-(6-nitro-4-oxo-2-phenyl-4H-quinazolin-3-yl)-ethyl]-3-phenyl ureas” (2013)
# Tests used:
# Pseudomonas aeruginosa [1] = test: Antibacterial activity against Pseudomonas aeruginosa ATCC 27853 assessed as growth inhibition at 100 ug/ml after 24 hr by Kirby-Bauer disk diffusion method; format: functional; details: ATCC 27853, 24 h, read-out: DIZ
# Pseudomonas aeruginosa [2] = test: Antibacterial activity against Pseudomonas aeruginosa ATCC 27853 assessed as growth inhibition after 24 hr by serial broth dilution method; format: functional; details: ATCC 27853, 24 h
# Staphylococcus aureus [3] = test: Antibacterial activity against Staphylococcus aureus ATCC 25923 assessed as growth inhibition after 24 hr by serial broth dilution method; format: functional; details: ATCC 25923, 24 h
# Escherichia coli [4] = test: Antibacterial activity against Escherichia coli ATCC 25922 assessed as initial concentration required for appearance of zone of inhibition after 24 hr; format: functional
# Pseudomonas aeruginosa [5] = test: Antibacterial activity against Pseudomonas aeruginosa ATCC 27853 assessed as initial concentration required for appearance of zone of inhibition after 24 hr; format: functional
# Staphylococcus aureus [6] = test: Antibacterial activity against Staphylococcus aureus ATCC 25923 assessed as initial concentration required for appearance of zone of inhibition after 24 hr; format: functional
# Escherichia coli [7] = test: microbe, parasite or virus in culture; details: ATCC 25922, 24 h, read-out: DIZ
# Description: Antibacterial activity against Escherichia coli ATCC 25922 assessed as growth inhibition at 300 ug/ml after 24 hr by Kirby-Bauer disk diffusion method
# Bacillus subtilis [8] = test: Antibacterial activity against Bacillus subtilis ATCC 11774 assessed as initial concentration required for appearance of zone of inhibition after 24 hr; format: functional
# Escherichia coli [9] = test: Antibacterial activity against Escherichia coli ATCC 25922 assessed as growth inhibition at 70 ug/ml after 24 hr by Kirby-Bauer disk diffusion method; format: functional; details: ATCC 25922, 24 h, read-out: DIZ
# Bacillus subtilis [10] = test: Antibacterial activity against Bacillus subtilis ATCC 11774 assessed as growth inhibition at 100 ug/ml after 24 hr by Kirby-Bauer disk diffusion method; format: functional; details: ATCC 11774, 24 h, read-out: DIZ
# Candida albicans [11] = test: Antifungal activity against Candida albicans ATCC 66027 assessed as growth inhibition at 300 ug/ml after 24 hr by Kirby-Bauer disk diffusion method; format: functional; details: ATCC 66027, 24 h, read-out: DIZ
# Staphylococcus aureus [12] = test: Antibacterial activity against Staphylococcus aureus ATCC 25923 assessed as growth inhibition at 100 ug/ml after 24 hr by Kirby-Bauer disk diffusion method; format: functional; details: ATCC 25923, 24 h, read-out: DIZ
# Pseudomonas aeruginosa [13] = test: Antibacterial activity against Pseudomonas aeruginosa ATCC 27853 assessed as growth inhibition at 300 ug/ml after 24 hr by Kirby-Bauer disk diffusion method; format: functional; details: ATCC 27853, 24 h, read-out: DIZ
# Escherichia coli [14] = test: microbe, parasite or virus in culture; details: ATCC 25922, 24 h, read-out: DIZ; remark: listed apart in the source
# Description: Antibacterial activity against Escherichia coli ATCC 25922 assessed as growth inhibition at 100 ug/ml after 24 hr by Kirby-Bauer disk diffusion method
# Candida albicans [15] = test: Antifungal activity against Candida albicans ATCC 66027 assessed as growth inhibition after 24 hr by serial broth dilution method; format: functional; details: ATCC 66027, 24 h
# Bacillus subtilis [16] = test: Antibacterial activity against Bacillus subtilis ATCC 11774 assessed as growth inhibition after 24 hr by serial broth dilution method; format: functional; details: ATCC 11774, 24 h
# Candida albicans [17] = test: Antifungal activity against Candida albicans ATCC 66027 assessed as growth inhibition at 100 ug/ml after 24 hr by Kirby-Bauer disk diffusion method; format: functional; details: ATCC 66027, 24 h, read-out: DIZ
# Escherichia coli [18] = test: Antibacterial activity against Escherichia coli ATCC 25922 assessed as growth inhibition after 24 hr by serial broth dilution method; format: functional; details: ATCC 25922, 24 h
# Staphylococcus aureus [19] = test: Antibacterial activity against Staphylococcus aureus ATCC 25923 assessed as growth inhibition at 300 ug/ml after 24 hr by Kirby-Bauer disk diffusion method; format: functional; details: ATCC 25923, 24 h, read-out: DIZ
# Bacillus subtilis [20] = test: Antibacterial activity against Bacillus subtilis ATCC 11774 assessed as growth inhibition at 300 ug/ml after 24 hr by Kirby-Bauer disk diffusion method; format: functional; details: ATCC 11774, 24 h, read-out: DIZ
# Candida albicans [21] = test: Antifungal activity against Candida albicans ATCC 66027 assessed as initial concentration required for appearance of zone of inhibition after 24 hr; format: functional
# Candida albicans [22] = test: Antifungal activity against Candida albicans ATCC 66027 assessed as growth inhibition at 20 ug/ml after 24 hr by Kirby-Bauer disk diffusion method; format: functional; details: ATCC 66027, 24 h, read-out: DIZ
Compound,zone of inhibition at 100 µg/mL (Pseudomonas aeruginosa [1]),MIC (Pseudomonas aeruginosa [2]),MIC (Staphylococcus aureus [3]),Activity (Escherichia coli [4]),Activity (Pseudomonas aeruginosa [5]),Activity (Staphylococcus aureus [6]),zone of inhibition at 300 µg/mL (Escherichia coli [7]),Activity (Bacillus subtilis [8]),zone of inhibition at 70 µg/mL (Escherichia coli [9]),zone of inhibition at 100 µg/mL (Bacillus subtilis [10]),zone of inhibition at 300 µg/mL (Candida albicans [11]),zone of inhibition at 100 µg/mL (Staphylococcus aureus [12]),zone of inhibition at 300 µg/mL (Pseudomonas aeruginosa [13]),zone of inhibition at 100 µg/mL (Escherichia coli [14]),MIC (Candida albicans [15]),MIC (Bacillus subtilis [16]),zone of inhibition at 100 µg/mL (Candida albicans [17]),MIC (Escherichia coli [18]),zone of inhibition at 300 µg/mL (Staphylococcus aureus [19]),zone of inhibition at 300 µg/mL (Bacillus subtilis [20]),other results
O=C(NCCn1c(-c2ccccc2)nc2ccc([N+](=O)[O-])cc2c1=O)Nc1ccccc1Cl,13 mm,100 µg/mL,100 µg/mL,70 µg/mL,70 µg/mL,100 µg/mL,18 mm,70 µg/mL,11 mm,12 mm,20 mm,11 mm,19 mm,14 mm,20 µg/mL,70 µg/mL,16 mm,70 µg/mL,14 mm,15 mm,Activity (Candida albicans [21]): 40 µg/mL
CC1CCC(NC(=O)NCCn2c(-c3ccccc3)nc3ccc([N+](=O)[O-])cc3c2=O)CC1 (stereo not drawn),12 mm,70 µg/mL,100 µg/mL,70 µg/mL,70 µg/mL,100 µg/mL,17 mm,100 µg/mL,11 mm,11 mm,20 mm,11 mm,21 mm,13 mm,10 µg/mL,100 µg/mL,15 mm,40 µg/mL,14 mm,14 mm,zone of inhibition at 20 µg/mL (Candida albicans [22]): 11 mm; Activity (Candida albicans [21]): 20 µg/mL
